Patent US20240327393A1 (SIRONAX LTD., priority 2021, published 2024)

tested on: HT-1080 (ATCC, CCL-121) cells; experiment: HT-1080 cell viability assay with ferroptosis inducer RSL3 (Cell Titer-Glo); assay type: cell-based; settings: HT-1080 cells treated with RSL3; 3-fold, 10-point dilution, 1.1 μM highest concentration; Table 3; read-out: EC50 (nM), ferroptosis inhibitory activity
Method in brief: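 HT-1080 cells (6000 per well) were cultured overnight at 37 °C, then co-treated with RSL3 and compound in a 3-fold, 10-point series topping at 1.1 μM. Viability was read by CellTiter-Glo luminescence and normalized to untreated controls. EC50 came from a sigmoidal non-linear regression fit.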

| EC50 | SMILES |
| --- | --- |
| 0.1 to 100 nM | Cc1cc(N2CCC(C(F)(F)F)CC2)ccc1Nc1ccc2c(c1)CNC2 [Compound 544, N-(2-methyl-4-(4-(trifluoromethyl)piperidin-1-yl)phenyl)isoindolin-5-amine] |

same assay, conditions: Homo sapiens; HT-1080 cells treated with RSL3; 3-fold, 10-point dilution, 1.1 μM highest concentration; Table 3; read-out: EC50 (nM), ferroptosis inhibitory activity

| SMILES | EC50 |
| --- | --- |
| Cc1c(Nc2ccc3c(c2)OCC(=O)N3)ccc(N2CCC(C(F)(F)F)CC2)c1C#N [Compound 537, 2-methyl-3-((3-oxo-3,4-dihydro-2H-benzo[b][1,4]oxazin-7-yl)amino)-6-(4-(trifluoromethyl)piperidin-1-yl)benzonitrile] | 0.1 to 100 nM |
| Cc1cc(N2CCC(C(F)(F)F)CC2)ccc1Nc1ccc2c(c1)COC(=O)N2 [Compound 539, 6-((2-methyl-4-(4-(trifluoromethyl)piperidin-1-yl)phenyl)amino)-1,4-dihydro-2H-benzo[d][1,3]oxazin-2-one] | 0.1 to 100 nM |
| CC1(O)CCN(c2ccc(Nc3ccc4c(c3)OCC(=O)N4)cc2)CC1 [Compound 540, 7-((4-(4-hydroxy-4-methylpiperidin-1-yl)phenyl)amino)-2H-benzo[b][1,4]oxazin-3(4H)-one] | 100 to 1000 nM |
| Cc1cc(N2CCC(C)(O)CC2)ccc1Nc1ccc2c(c1)OCC(=O)N2 [Compound 541, 7-((4-(4-hydroxy-4-methylpiperidin-1-yl)-2-methylphenyl)amino)-2H-benzo[b][1,4]oxazin-3(4H)-on] | 100 to 1000 nM |
| Cc1cc(N2CCC(C(C)(C)O)CC2)ccc1Nc1ccc2c(c1)OCC(=O)N2 [Compound 542, 7-((4-(4-(2-hydroxypropan-2-yl)piperidin-1-yl)-2-methylphenyl)amino)-2H-benzo[b][1,4]oxazin-3(4H)-one] | 0.1 to 100 nM |
| O=C1COc2cc(Nc3ccc(N4C5CCC4CC5)cc3)ccc2N1 [Compound 549, 7-((4-(7-azabicyclo[2.2.1]heptan-7-yl)phenyl)amino)-2H-benzo[b][1,4]oxazin-3(4H)-one] | 0.1 to 100 nM |

Next, values leading:

| EC50 | SMILES |
| --- | --- |
| 0.1 to 100 nM | CC(C)(O)C1CCN(c2ccc(Nc3ccc4c(c3)OCC(=O)N4)cc2)CC1 [Compound 543, 7-((4-(4-(2-hydroxypropan-2-yl)piperidin-1-yl)phenyl)amino)-2H-benzo[b][1,4]oxazin-3(4H)-on] |
| 0.1 to 100 nM | Cc1cc(N2CCC(C(F)(F)F)CC2)ccc1Nc1ccc2c(c1)CN(C(N)=O)C2 [Compound 545, 5-((2-methyl-4-(4-(trifluoromethyl)piperidin-1-yl)phenyl)amino) isoindoline-2-carboxamide] |
| 0.1 to 100 nM | COc1cc(Nc2ccc3c(c2)OCC(=O)N3)c(C)cc1N1CCC(C(F)(F)F)CC1 [Compound 546, 7-((5-methoxy-2-methyl-4-(4-(trifluoromethyl)piperidin-1-yl)phenyl)amino)-2H-benzo[b][1,4]oxazin-3(4H)-one] |
| 0.1 to 100 nM | COc1cc(Nc2cnc3c(c2)OCC(=O)N3)c(C)cc1N1CCC(C(F)(F)F)CC1 [Compound 547, 7-((5-methoxy-2-methyl-4-(4-(trifluoromethyl)piperidin-1-yl)phenyl)amino)-2H-pyrido[3,2-b][1,4]oxazin-3(4H)-one] |
| 0.1 to 100 nM | COc1cc(Nc2cc(C)c3c(c2)OCC(=O)N3)c(C)cc1N1CCC(C(F)(F)F)CC1 [Compound 548, 7-((5-methoxy-2-methyl-4-(4-(trifluoromethyl)piperidin-1-yl)phenyl)amino)-5-methyl-2H-benzo[b][1,4]oxazin-3(4H)-one] |
| 0.1 to 100 nM | Cc1cc(N2CCC(C(F)(F)F)CC2)ccc1Nc1ccc2c(C(N)=O)cn(C)c2c1 [Compound 551, 1-methyl-6-((2-methyl-4-(4-(trifluoromethyl)piperidin-1-yl)phenyl)amino)-1H-indole-3-carboxamide] |
| 0.1 to 100 nM | Cc1cc(N2CCN(C(=O)C(F)(F)F)[C@@H](C)C2)ccc1Nc1ccc2c(c1)OCC(=O)N2 [Compound 552, (S)-7-((2-methyl-4-(3-methyl-4-(2,2,2-trifluoroacetyl)piperazin-1-yl)phenyl)amino)-2H-benzo[b][1,4]oxazin-3(4H)-one] |
